Assay results: patent US20060069132A1, “Azolecarboxamide herbicides” (priority 2004, published 2006)

Key:
large crabgrass = experiment: Test B pre-/postemergence herbicide test; type: in vivo, Digitaria sanguinalis; conditions: for Crabgrass, Large plant response rating (0 to 100 scale) / Plant response rating, Crabgrass, Large: 0 = no effect, 100 = complete control, preemergence; for Crabgrass, Large plant response rating: postemergence
Method in brief: (§1)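 Test chemicals in a non-phytotoxic solvent mixture with surfactant were applied preemergence to seeded species and postemergence to plants 2-18 cm tall (1- to 4-leaf stage); rice and barnyardgrass were also tested in a flooded paddy at the 2-leaf stage. Visual rating versus controls after 13-15 days in greenhouse, scale 0 (no effect) to 100 (complete control).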

cocklebur = experiment: Test B pre-/postemergence herbicide test; type: in vivo, Xanthium strumarium; conditions: for Cocklebur plant response rating (0 to 100 scale) / Plant response rating, Cocklebur: 0 = no effect, 100 = complete control, preemergence; for Plant response rating, Cocklebur / Cocklebur plant response rating: visual rating; for Cocklebur plant response rating: postemergence, scale 0 (no effect) to 100 (complete control)
Method in brief: (§2)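 Pre: seeds sown, then sprayed. Post: 1–4-leaf plants (2–18 cm) sprayed at the same time. Paddy: flooded, treated at 2-leaf stage. Formulation: non-phytotoxic solvent with surfactant. Greenhouse 13–15 days; visual 0–100 score relative to controls.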

wild oat = experiment: Test B postemergence herbicide test; type: in vivo, Avena fatua; conditions: postemergence
Method in brief: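 Each value is a visual 0–100 response rating taken against controls 13 to 15 days after treatment in the greenhouse. Plants received formulated chemical postemergence at the 1- to 4-leaf stage or, in flooded paddy, at the 2-leaf stage.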

pigweed = experiment: Test B pre-/postemergence herbicide test; type: in vivo, Amaranthus retroflexus; conditions: for Pigweed plant response rating: postemergence
Method in brief: as §1

morningglory = experiment: Test B pre-/postemergence herbicide test; type: in vivo, Ipomoea coccinea; conditions: for Morningglory plant response rating (0 to 100 scale) / Plant response rating, Morningglory: 0 = no effect, 100 = complete control, preemergence; for Morningglory plant response rating: postemergence
Method in brief: as §2

ducksalad = experiment: Test B flooded paddy test; type: in vivo, Heteranthera limosa; conditions: 1000 g ai/ha, scale 0 to 100 (0 no effect, 100 complete control)
Method in brief: (§3)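 Read-out: visual comparison with controls, scored 0 to 100, where 100 means complete control and 0 no effect. Formulated chemicals were applied postemergence to plants 2–18 cm tall (1- to 4-leaf), or to flooded-paddy plants at the 2-leaf stage, then held 13 to 15 days under glass.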

rice = experiment: Test B flooded paddy test; type: in vivo, Oryza sativa; conditions: 1000 g ai/ha, scale 0 to 100 (0 no effect, 100 complete control)
Method in brief: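 Paddy species grown to the 2-leaf stage under flooding; blackgrass sprayed postemergence at 2–18 cm (1- to 4-leaf stage). Plants kept in a greenhouse for 13 to 15 days, then visually rated against controls on 0 (no effect) to 100 (complete control).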

blackgrass = experiment: Test B postemergence herbicide test; type: in vivo, Alopecurus myosuroides; conditions: postemergence, visual rating, scale 0 (no effect) to 100 (complete control)
Method in brief: as §3

corn = experiment: Test B pre-/postemergence herbicide test; type: in vivo, Zea mays; conditions: for Corn plant response rating (0 to 100 scale) / Plant response rating, Corn: 0 = no effect, 100 = complete control, preemergence; for Corn plant response rating: postemergence
Method in brief: as §1

[1] = tested on: small flower umbrella sedge; experiment: Test B flooded paddy test; type: in vivo, Cyperus difformis; conditions: 1000 g ai/ha, scale 0 to 100 (0 no effect, 100 complete control)
Method in brief: as §3

velvetleaf = experiment: Test B pre-/postemergence herbicide test; type: in vivo, Abutilon theophrasti; conditions: for Velvetleaf plant response rating (0 to 100 scale) / Plant response rating, Velvetleaf: 0 = no effect, 100 = complete control, preemergence; for Velvetleaf plant response rating: postemergence
Method in brief: as §1

barnyardgrass [2] = experiment: Test B flooded paddy test; type: in vivo, Echinochloa crus-galli; conditions: 1000 g ai/ha, scale 0 to 100 (0 no effect, 100 complete control)
Method in brief: as §3

barnyardgrass [3] = experiment: Test B pre-/postemergence herbicide test; type: in vivo, Echinochloa crus-galli; conditions: for Barnyardgrass plant response rating (0 to 100 scale) / Plant response rating, Barnyardgrass: 0 = no effect, 100 = complete control, preemergence; for Plant response rating, Barnyardgrass / Barnyardgrass plant response rating: visual rating; for Barnyardgrass plant response rating: postemergence, scale 0 (no effect) to 100 (complete control)
Method in brief: as §2

giant foxtail = experiment: Test B pre-/postemergence herbicide test; type: in vivo, Setaria faberi; conditions: for Foxtail, Giant plant response rating (0 to 100 scale) / Plant response rating, Foxtail, Giant: 0 = no effect, 100 = complete control, preemergence; for Foxtail, Giant plant response rating: postemergence
Method in brief: as §1

lambsquarters = experiment: Test B pre-/postemergence herbicide test; type: in vivo, Chenopodium album; conditions: for Lambsquarters plant response rating: postemergence
Method in brief: as §1

[4] = 125 g ai/ha, visual rating, scale 0 (no effect) to 100 (complete control)
[5] = 500 g ai/ha, scale 0 to 100, 0 is no effect, 100 is complete control
[6] = 125 g ai/ha, 0 = no effect, 100 = complete control, preemergence
[7] = 500 g ai/ha, visual rating, 0 = no effect, 100 = complete control, preemergence

Compound: CCn1nc(C(C)(C)C)cc1C(=O)Nc1cc(C(=O)N2CCCC2)ccc1F [Compound 242]
- Crabgrass, Large plant response rating (0 to 100 scale) (large crabgrass; 125 g ai/ha): 90
- Plant response rating, Crabgrass, Large (large crabgrass; 500 g ai/ha, visual rating): 100
- Crabgrass, Large plant response rating (large crabgrass; [4]): 30
- Crabgrass, Large plant response rating (large crabgrass; [5]): 50
- Cocklebur plant response rating (0 to 100 scale) (cocklebur; 125 g ai/ha): 10
- Plant response rating, Cocklebur (cocklebur; 500 g ai/ha): 40
- Cocklebur plant response rating (cocklebur; 125 g ai/ha): 40
- Cocklebur plant response rating (cocklebur; 500 g ai/ha): 90
- Oat, Wild plant response rating (wild oat; [4]): 10
- Oat, Wild plant response rating (wild oat; [5]): 30
- Pigweed plant response rating (0 to 100 scale) (pigweed; [6]): 100
- Plant response rating, Pigweed (pigweed; [7]): 100
- Pigweed plant response rating (pigweed; [4]): 60
- Pigweed plant response rating (pigweed; [5]): 80
- Morningglory plant response rating (0 to 100 scale) (morningglory; 125 g ai/ha): 0
- Plant response rating, Morningglory (morningglory; 500 g ai/ha, visual rating): 10
- Morningglory plant response rating (morningglory; [4]): 20
- Morningglory plant response rating (morningglory; [5]): 40
- Ducksalad plant response rating (ducksalad): 90
- Rice plant response rating (rice): 90
- Blackgrass plant response rating (blackgrass; 125 g ai/ha): 10
- Blackgrass plant response rating (blackgrass; 500 g ai/ha): 20
- Corn plant response rating (0 to 100 scale) (corn; 125 g ai/ha): 30
- Plant response rating, Corn (corn; 500 g ai/ha, visual rating): 60
- Corn plant response rating (corn; [4]): 10
- Corn plant response rating (corn; [5]): 40
- Sedge, Umbrella plant response rating [1]: 90
- Velvetleaf plant response rating (0 to 100 scale) (velvetleaf; 125 g ai/ha): 50
- Plant response rating, Velvetleaf (velvetleaf; 500 g ai/ha, visual rating): 100
- Velvetleaf plant response rating (velvetleaf; [4]): 50
- Velvetleaf plant response rating (velvetleaf; [5]): 60
- Barnyardgrass plant response rating (barnyardgrass [2]): 90
- Barnyardgrass plant response rating (0 to 100 scale) (barnyardgrass [3]; 125 g ai/ha): 80
- Plant response rating, Barnyardgrass (barnyardgrass [3]; 500 g ai/ha): 100
- Barnyardgrass plant response rating (barnyardgrass [3]; 125 g ai/ha): 50
- Barnyardgrass plant response rating (barnyardgrass [3]; 500 g ai/ha): 60
- Foxtail, Giant plant response rating (0 to 100 scale) (giant foxtail; 125 g ai/ha): 80
- Plant response rating, Foxtail, Giant (giant foxtail; 500 g ai/ha, visual rating): 90
- Foxtail, Giant plant response rating (giant foxtail; [4]): 20
- Foxtail, Giant plant response rating (giant foxtail; [5]): 30
- Lambsquarters plant response rating (0 to 100 scale) (lambsquarters; [6]): 100
- Plant response rating, Lambsquarters (lambsquarters; [7]): 100
- Lambsquarters plant response rating (lambsquarters; [4]): 90
- Lambsquarters plant response rating (lambsquarters; [5]): 90

Compound: CCn1nc(C(C)(C)C)cc1C(=O)Nc1cc(C(=O)OC(C)C)c(F)cc1F [Compound 248]
- Crabgrass, Large plant response rating (0 to 100 scale) (large crabgrass; 125 g ai/ha): 20
- Plant response rating, Crabgrass, Large (large crabgrass; 500 g ai/ha, visual rating): 40
- Crabgrass, Large plant response rating (large crabgrass; [4]): 10
- Crabgrass, Large plant response rating (large crabgrass; [5]): 20
- Cocklebur plant response rating (0 to 100 scale) (cocklebur; 125 g ai/ha): 0
- Plant response rating, Cocklebur (cocklebur; 500 g ai/ha): 0
- Cocklebur plant response rating (cocklebur; 125 g ai/ha): 30
- Cocklebur plant response rating (cocklebur; 500 g ai/ha): 50
- Oat, Wild plant response rating (wild oat; [4]): 30
- Oat, Wild plant response rating (wild oat; [5]): 60
- Pigweed plant response rating (0 to 100 scale) (pigweed; [6]): 0
- Pigweed plant response rating (pigweed; [4]): 60
- Pigweed plant response rating (pigweed; [5]): 80
- Morningglory plant response rating (0 to 100 scale) (morningglory; 125 g ai/ha): 0
- Plant response rating, Morningglory (morningglory; 500 g ai/ha, visual rating): 0
- Morningglory plant response rating (morningglory; [4]): 20
- Morningglory plant response rating (morningglory; [5]): 50
- Ducksalad plant response rating (ducksalad): 30
- Rice plant response rating (rice): 50
- Blackgrass plant response rating (blackgrass; 125 g ai/ha): 20
- Blackgrass plant response rating (blackgrass; 500 g ai/ha): 30
- Corn plant response rating (0 to 100 scale) (corn; 125 g ai/ha): 0
- Plant response rating, Corn (corn; 500 g ai/ha, visual rating): 0
- Corn plant response rating (corn; [4]): 20
- Corn plant response rating (corn; [5]): 30
- Sedge, Umbrella plant response rating [1]: 50
- Velvetleaf plant response rating (0 to 100 scale) (velvetleaf; 125 g ai/ha): 0
- Plant response rating, Velvetleaf (velvetleaf; 500 g ai/ha, visual rating): 20
- Velvetleaf plant response rating (velvetleaf; [4]): 20
- Velvetleaf plant response rating (velvetleaf; [5]): 30
- Barnyardgrass plant response rating (barnyardgrass [2]): 40
- Barnyardgrass plant response rating (0 to 100 scale) (barnyardgrass [3]; 125 g ai/ha): 0
- Plant response rating, Barnyardgrass (barnyardgrass [3]; 500 g ai/ha): 20
- Barnyardgrass plant response rating (barnyardgrass [3]; 125 g ai/ha): 10
- Barnyardgrass plant response rating (barnyardgrass [3]; 500 g ai/ha): 40
- Foxtail, Giant plant response rating (0 to 100 scale) (giant foxtail; 125 g ai/ha): 20
- Plant response rating, Foxtail, Giant (giant foxtail; 500 g ai/ha, visual rating): 60
- Foxtail, Giant plant response rating (giant foxtail; [4]): 20
- Foxtail, Giant plant response rating (giant foxtail; [5]): 30
- Lambsquarters plant response rating (0 to 100 scale) (lambsquarters; [6]): 0
- Lambsquarters plant response rating (lambsquarters; [4]): 60
- Lambsquarters plant response rating (lambsquarters; [5]): 70
